Measured values published in article PMC5761474 (Journal of Pharmaceutical Analysis, 2014).

Experiment: Pharmacokinetic study of DRV in rats after oral dosing
Format: in vivo, male Wistar rats
[1] = male, Wistar, rat, plasma, po, 50 mg/kg
[2] = oral 50 mg/kg, rats, n=6, mean±SD

AUC(0-inf) [1]: 1060 ± 49 ng·h/mL
AUC(0-t) [1]: 1010 ± 48 ng·h/mL
Cmax [1]: 130 ± 4 ng/mL
MRT inf [1]: 7.89 ± 0.83 h
Tmax [1]: 3 ± 0.28 h
AUMC0−t [2]: 6518±386 ng h^2/mL
AUMC0−∞ [2]: 8408±914 ng h^2/mL
SMILES: CC(C)CN(C[C@@H](O)[C@H](Cc1ccccc1)NC(=O)O[C@H]1CO[C@H]2OCC[C@H]21)S(=O)(=O)c1ccc(N)cc1 [DRV, darunavir]
